15 molecules from patent US5486595A, “Tumor necrosis factor inhibitors” (Centecor, Inc., priority 1994, dated 1996) can be followed below.

Where a SMILES comes first, the peptide text is derived from it.

This assay deals with T1, human TNFα (Homo sapiens, UniProt P01375).
T1 construct: purchased Biosource, Camarillo, Calif
In words: p55 Receptor/IgG Fusion Protein Binding Assay (inhibition of TNFα capture by p55-Ig coated plate). Conditions: peptide 1 mM, TNFα 25 ng/ml; for inhibition at 1000 µM: read-out: inhibition of binding of TNFα to p55TNFr-IgG chimeric construct. As to the method: This assay was designed to identify peptides which bind to human TNFα and thereby prevent the capture of the TNFα by a microtiter plate coated with p55-Ig fusion protein. A constant concentration of human TNFα is preincubated with the test peptide and then incubated on the p55-Ig coated microtiter wells. Bound TNFα is detected using a specific antisera and an alkaline phosphatase-conjugated probe.
A 96-well, U-bottom polyvinylchloride microtiter plate was coated with 50 μl/well of p55-Ig fusion protein at 5 μg/ml in 0.01M sodium phosphate, 0.15M sodium chloride (PBS) by incubation overnight at 4° C. or 2 hours at 37° C. The fusion protein, which consists of a p55 TNF receptor protein portion and an IgG portion, can be produced as disclosed in U.S. application Ser. No. 08/010,406 filed Jan. 29, 1993 which is incorporated herein by reference. The plate was washed three times with 0.05% Tween-20 in PBS, then blocked, by adding 150 μl/well of assay buffer (10 mM N-2-hydroxyethylpiperazine-N'-[…] (HEPES) pH 7.2, containing 0.1% porcine gelatin, 0.1% Tween-80, and 0.01% sodium azide) and continuing incubation for 1 hour at 37° C. or at 4° C. for 1-7 days.
Lyophilized peptides to be tested were weighed in tared 12×75 mm polystyrene tubes and reconstituted to a concentration of 1.2 mM with assay buffer. Each suspension was sonicated in a water bath for 1-5 minutes and vortexed 15-30 seconds to disperse large particles. Serial dilutions of each peptide suspension were prepared using assay buffer in a 96-well polystyrene microtiter plate. Additional wells received Fab fragment of the mouse/human monoclonal anti-human TNFα antibody cA2 (positive control) or assay buffer (negative control). […] The polystyrene dilution plate was then sealed and incubated 1 hour at room temperature on an orbital mixer set at moderate speed.
Following the sample preincubation, blocker was discarded from the p55-Ig coated plate and blotted dry. Aliquots (50 μl) of each peptide or control were transferred into duplicate wells on the p55-Ig coated plate which was then sealed and incubated i hour at 37° C. Duplicate wells containing only assay buffer were included as a plate blank. After incubation the p55-Ig plate was washed three times with 0.05% Tween-20 in PBS.
To detect TNFα captured by the p55-Ig plate, all wells were incubated in succession with polyclonal rabbit anti-human TNFα (Genzyme, Boston, Mass.; 1:500 in assay buffer, 50 μl/well), biotinylated goat anti-rabbit Ig (H&L) (Vector Laboratories, Burlingame, Calif.; 1 μg/ml in assay buffer, 50 μl/well) and streptavidin-alkaline phosphatase conjugate (Pierce, Rockford, Ill.; 1 μg/ml in assay buffer, 50 μl/well). All incubations were for 1 hour at 37° C. and after each incubation the plate was washed three times with 0.05% Tween-20 in PBS. Fifty microliters of alkaline phosphatase substrate solution (alkaline buffer (Sigma, St. Louis, Mo.) diluted 1:500 in deionized water plus one 5 mg tablet of p-nitrophenyl phosphate (Sigma, St. Louis, Mo.) per 5 ml of diluted buffer) was added to all wells and incubation continued for 20 minutes at room temperature. Color development was stopped by adding to all wells 50 μl of 3N sodium hydroxide. The optical density (OD) at 405 nm was measured on a microtiter plate reader (Molecular Devices Vmax plate reader), with the plate blank wells subtracted as background. The activity of each peptide was then expressed as the percent inhibition of TNFα capture by the p55-Ig plate, relative to the amount of TNFα captured in wells containing only assay buffer (negative control), as follows: % inhibition=100-((mean OD peptide/mean OD negative control)×100).
The inhibition of binding of TNFα to p55TNFr-IgG chimeric construct was performed as described above using several embodiments of the invention. The peptides were tested at a concentration of 1 mM.

T1 sequence (P01375 77-233 limits assumed): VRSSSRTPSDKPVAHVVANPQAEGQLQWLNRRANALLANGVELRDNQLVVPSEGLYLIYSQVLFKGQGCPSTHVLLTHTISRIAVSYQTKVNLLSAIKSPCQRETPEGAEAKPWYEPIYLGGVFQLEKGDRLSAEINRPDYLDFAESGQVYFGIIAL

Regarding “SEQ ID NO:48: peptide of the invention that inhibits TNFα; sequence not printed (TDIARPHQIANVVAI)”, the “inhibition of binding of TNFα to p55TNFr-IgG chimeric construct” value (shortened to “inhibition of binding of TNFα”) is reported as 27%. As to “SEQ ID NO:36: peptide of the invention that inhibits TNFα; sequence not printed (SAEDSTYTQLWNWVP)”, the “inhibition of binding of TNFα” value is 77%. One may read the inhibition as the change of the read-out against control, counted positive when it falls. In the case of `CSCC[C@H](NC(=O)[C@H](CCC(N)=O)NC(=O)[C@H](C)NC(=O)[C@@H](NC(=O)[C@H](CCC(N)=O)NC(=O)[C@H](CC(=O)O)NC(=O)[C@H](Cc1ccc(O)cc1)NC(=O)[C@H](Cc1ccc(O)cc1)NC(=O)[C@H](CCC(=O)O)NC(=O)[C@H](CCCNC(=N)N)NC(=O)[C@H](CC(C)C)NC(=O)[C@@H](N)CCCNC(=N)N)[C@@H](C)O)C(=O)N[C@@H](C)C(=O)N[C@@H](C)C(=O)N[C@@H](CO)C(N)=O` [SEQ ID NO:29] (H-RLREYYDQTAQMAAS-NH2), the inhibition at 1000 µM came to 53%. The same measure, in the same setting: under `CC(C)C[C@H](NC(=O)[C@H](Cc1ccccc1)NC(=O)[C@H](Cc1ccccc1)NC(=O)CNC(=O)[C@H](C)NC(=O)[C@H](Cc1c[nH]cn1)NC(=O)[C@H](C)NC(=O)[C@@H](NC(=O)[C@H](C)NC(=O)[C@@H](NC(=O)[C@@H](NC(=O)[C@H](CC(N)=O)NC(=O)[C@H](CCC(N)=O)NC(=O)[C@H](CCCCN)NC(=O)[C@H](CCC(=O)O)NC(=O)[C@@H](N)CCC(N)=O)[C@@H](C)O)C(C)C)[C@@H](C)O)C(=O)N[C@@H](CCCNC(=N)N)C(=O)N[C@@H](CCC(=O)O)C(=O)N[C@@H](CC(N)=O)C(=O)N[C@@H](CCC(=O)O)C(N)=O` [SEQ ID NO:15, Glutaminyl-glutamyl-lysyl-glutaminyl-asparaginyl-threonyl-valyl-alanyl-threonyl-alanyl-histidyl-alanyl-glycyl-phenylalanyl-phenylalanyl-leucyl-arginyl-glutamyl-asparaginyl-glutamic Acid Amide] (H-QEKQNTVATAHAGFFLRENE-NH2) stands 48%. Same read-out and setting: under `CSCC[C@H](NC(=O)[C@H](CCC(N)=O)NC(=O)[C@H](C)NC(=O)[C@@H](NC(=O)[C@H](CCC(N)=O)NC(=O)[C@H](CC(=O)O)NC(=O)[C@H](Cc1ccc(O)cc1)NC(=O)[C@H](Cc1ccc(O)cc1)NC(=O)[C@@H](N)CCC(=O)O)[C@@H](C)O)C(=O)N[C@@H](C)C(=O)N[C@@H](C)C(=O)N[C@@H](CO)C(=O)N[C@@H](CCCCN)C(=O)N[C@@H](C)C(=O)N[C@@H](CO)C(N)=O` [SEQ ID NO:30] (H-EYYDQTAQMAASKAS-NH2) stands 59%; under `CC[C@H](C)[C@H](NC(=O)[C@H](CCC(N)=O)NC(=O)[C@@H]1CCCN1C(=O)[C@H](CC(C)C)NC(=O)[C@H](C)NC(=O)[C@@H](N)CC(C)C)C(=O)N[C@@H](CCC(=O)O)C(=O)N[C@@H](CC(N)=O)C(=O)N[C@H](C(=O)N[C@@H](CCCCN)C(=O)NCC(=O)N[C@H](C(=O)N[C@@H](CCC(=O)O)C(=O)N[C@@H](CC(=O)O)C(=O)N[C@@H](CO)C(N)=O)[C@@H](C)O)C(C)C` [SEQ ID NO:22, Leucyl-alanyl-leucyl-prolyl-glutaminyl-isoleucyl-glutamyl-asparaginyl-valyl-lysyl-glycyl-threonyl-glutamyl-aspartyl-serine Amide] (H-LALPQIENVKGTEDS-NH2), 34%; under `CSCC[C@H](NC(=O)[C@H](CCC(N)=O)NC(=O)[C@H](C)NC(=O)[C@@H](NC(=O)[C@H](CCC(N)=O)NC(=O)[C@H](CC(=O)O)NC(=O)[C@H](Cc1ccc(O)cc1)NC(=O)[C@H](Cc1ccc(O)cc1)NC(=O)[C@H](CCC(=O)O)NC(=O)[C@H](CCCNC(=N)N)NC(=O)[C@H](CC(C)C)NC(=O)[C@H](CCCNC(=N)N)NC(=O)[C@H](C)NC(=O)[C@@H](NC(=O)[C@@H](N)CO)[C@@H](C)O)[C@@H](C)O)C(N)=O` [SEQ ID NO:28] (H-STARLREYYDQTAQM-NH2), 72%. As to “SEQ ID NO:42: peptide of the invention that inhibits TNFα; sequence not printed (SSDQVETQAATREQN)”, the “inhibition of binding of TNFα” value is on record as 40%. Turning to `CC(C)C[C@H](N)C(=O)N[C@@H](Cc1ccc(O)cc1)C(=O)N[C@@H](CC(N)=O)C(=O)N[C@@H](CC(=O)O)C(=O)N[C@@H](C)C(=O)N1CCC[C@H]1C(=O)NCC(=O)N1CCC[C@H]1C(=O)NCC(=O)N[C@@H](CCC(N)=O)C(=O)N[C@@H](CC(=O)O)C(=O)N[C@H](C(=O)N[C@@H](CC(=O)O)C(=O)N[C@@H](C)C(=O)N[C@@H](CCCNC(=N)N)C(N)=O)[C@@H](C)O` [SEQ ID NO:1, Leucyl-tyrosyl-asparaginyl-aspartyl-alanyl-prolyl-glycyl-prolyl-glycyl-glutaminyl-aspartyl-threonyl-aspartyl-alanyl-arginine Amide] (H-LYNDAPGPGQDTDAR-NH2), the inhibition at 1000 µM was 46%. The same measure, in the same setting: next, `CSCC[C@H](NC(=O)[C@H](CO)NC(=O)[C@H](CCCNC(=N)N)NC(=O)[C@@H](NC(=O)[C@@H]1CCCN1C(=O)[C@H](CO)NC(=O)[C@@H](NC(=O)[C@H](CO)NC(=O)[C@@H](NC(=O)[C@H](C)N)[C@@H](C)O)[C@@H](C)O)[C@@H](C)O)C(=O)N[C@@H](C)C(=O)N1CCC[C@H]1C(=O)NCC(=O)N[C@@H](C)C(=O)N[C@H](C(N)=O)C(C)C` [SEQ ID NO:54] (H-ATSTSPTRSMAPGAV-NH2): 52%. In the case of “SEQ ID NO:44: peptide of the invention that inhibits TNFα; sequence not printed (AAPGTFSNTTSSTDI)”, the “inhibition of binding of TNFα” value amounted to 28%. “SEQ ID NO:37: peptide of the invention that inhibits TNFα; sequence not printed (DSTYTQLWNWVPEAL)”: the “inhibition of binding of TNFα” value was determined as 77%.

For the molecule `CC(C)[C@H](NC(=O)[C@H](CCCCN)NC(=O)[C@H](C)NC(=O)[C@@H](N)Cc1c[nH]cn1)C(=O)N[C@@H](Cc1ccccc1)C(=O)N[C@@H](C)C(=O)N[C@H](C(=O)N[C@@H](CCCCN)C(=O)N[C@H](C(=O)N[C@@H](CO)C(=O)N[C@@H](CC(=O)O)C(=O)N[C@H](C(=O)N[C@H](C(=O)N[C@@H](C)C(=O)N[C@@H](CC(=O)O)C(N)=O)C(C)C)[C@@H](C)O)[C@@H](C)O)[C@@H](C)O` [SEQ ID NO:31] (H-HAKVFATKTSDTVAD-NH2), the inhibition at 1000 µM came out at 68%. Still for that read-out and setting: next, `CC(=O)N[C@@H](C)C(=O)N[C@@H](Cc1ccccc1)C(=O)N[C@@H](CC(N)=O)C(=O)N[C@@H](C)C(=O)N[C@@H](CO)C(=O)N[C@@H](CC(C)C)C(=O)N[C@@H](C)C(=O)N[C@@H](CC(C)C)C(=O)N[C@@H](CC(N)=O)C(=O)NCC(=O)N[C@H](C(=O)N[C@H](C(=O)N[C@@H](Cc1c[nH]cn1)C(=O)N[C@@H](CC(C)C)C(=O)N[C@@H](CO)C(N)=O)C(C)C)[C@@H](C)O` [SEQ ID NO:13, Acetyl-alanyl-phenylalanyl-asparaginyl-alanyl-seryl-leucyl-alanyl-leucyl-asparaginyl-glycyl-threonyl-valyl-histidyl-leucyl-serine Amide] (Ac-AFNASLALNGTVHLS-NH2): 34%.

For “SEQ ID NO:43: peptide of the invention that inhibits TNFα; sequence not printed (PGWYAALSKQEGARL)”, the “inhibition of binding of TNFα” value was 37%.
